Results: ChEMBL document CHEMBL2401692, “Synthesis, structure-activity relationships, and in vivo efficacy of the novel potent and selective anaplastic lymphoma kinase (ALK) inhibitor 5-chloro-N2-(2-isopropoxy-5-methyl-4-(piperidin-4-yl)phenyl)-N4-(2-(isopropylsulfonyl)phenyl)pyrimidine-2,4-diamine (LDK378) currently in phase 1 and phase …” (J Med Chem, 2013)
In brackets after ≈: the same amount, converted by molar mass.

Key:
[1] = Intrinsic clearance in mouse liver microsomes; assay type: ADME, Microsome; conditions: read-out: CLH
[2] = target: BDNF/NT-3 growth factors receptor (Homo sapiens, UniProt Q16620); assay: Inhibition of TEL-fused TRKB (unknown origin) by cell-based assay
[3] = target: Transcription factor ETV6 (Homo sapiens, UniProt P41212); assay: Inhibition of wild-type TEL (unknown origin) by cell-based assay
[4] = Tmax in Beagle dog at 5 mg/kg, iv; assay type: ADME, organism-based, Canis lupus familiaris; design: dose 5 mg/kg, route intravenous; conditions: in vivo
[5] = target: Fibroblast growth factor receptor 4 (Homo sapiens, UniProt P22455); assay: Inhibition of FGFR4 (unknown origin) after 60 mins
[6] = target: High affinity nerve growth factor receptor (Homo sapiens, UniProt P04629); assay: Inhibition of TEL-fused TRKA (unknown origin) by cell-based assay
[7] = Cmax in BALB/c mouse at 5 mg/kg, iv; assay type: ADME, organism-based; design: dose 5 mg/kg, route intravenous; conditions: in vivo
[8] = Toxicity in po dosed Rowett nude rat xenografted with human KARPAS299 cells; assay type: organism-based, KARPAS-299; conditions: in vivo
[9] = Intrinsic clearance in human liver microsomes; assay type: ADME, Microsome; conditions: read-out: CLH
Rattus norvegicus [10] = assay: Toxicity in po dosed Rowett nude rat xenografted with human KARPAS299 cells assessed as body weight loss at 6.25 to 50 mg/kg, po; assay type: organism-based, KARPAS-299; design: dose 6.25-50 mg/kg, route oral; conditions: in vivo
[11] = target: Receptor-type tyrosine-protein kinase FLT3 (Homo sapiens, UniProt P36888); assay: Inhibition of FLT3 (unknown origin) after 60 mins
[12] = target: Mast/stem cell growth factor receptor Kit (Homo sapiens, UniProt P10721); assay: Inhibition of cKIT (unknown origin) after 60 mins
[13] = target: Proto-oncogene tyrosine-protein kinase Src (Homo sapiens, UniProt P12931); assay: Inhibition of TEL-fused SRC (unknown origin) by cell-based assay
[14] = AUC in BALB/c mouse at 5 mg/kg, iv; assay type: ADME, organism-based; design: dose 5 mg/kg, route intravenous; conditions: plasma
[15] = AUC in cynomolgus monkey at 60 mg/kg, po; assay type: ADME, organism-based, Macaca fascicularis; design: dose 60 mg/kg, route oral; conditions: plasma
[16] = Plasma clearance in Sprague-Dawley rat at 3 mg/kg, iv; assay type: ADME, organism-based; design: dose 3 mg/kg, route intravenous
KARPAS-299 [17] = assay: Antitumor activity against human KARPAS299 cells xenografted in Rowett nude rat assessed as tumor regression at 50 mg/kg, po for 14 days measured 7 to 72 hrs post dosing relative to control; assay type: functional
[18] = target: Testis-specific serine/threonine-protein kinase 1 (Homo sapiens, UniProt Q9BXA7); assay: Inhibition of STK22D (unknown origin) after 60 mins
[19] = target: Receptor-type tyrosine-protein kinase FLT3 (Homo sapiens, UniProt P36888); assay: Inhibition of TEL-fused FLT3 (unknown origin) by cell-based assay
KARPAS-299 [20] = assay: Antitumor activity against human KARPAS299 cells xenografted in Rowett nude rat assessed as tumor growth inhibition factor at 6.25 mg/kg, po for 14 days measured 7 to 72 hrs post dosing relative to control; assay type: functional
[21] = target: Tyrosine-protein kinase ABL1 (Homo sapiens, UniProt P00519); assay: Inhibition of ABL (unknown origin) after 60 mins
[22] = target: Glycogen synthase kinase-3 beta (Homo sapiens, UniProt P49841); assay: Inhibition of GSK3beta (unknown origin) after 60 mins
[23] = AUC in Beagle dog at 20 mg/kg, po; assay type: ADME, organism-based, Canis lupus familiaris; design: dose 20 mg/kg, route oral; conditions: plasma
[24] = Half life in Sprague-Dawley rat at 3 mg/kg, iv; assay type: ADME, organism-based; design: dose 3 mg/kg, route intravenous; conditions: in vivo
[25] = target: MAP kinase-interacting serine/threonine-protein kinase 2 (Homo sapiens, UniProt Q9HBH9); assay: Inhibition of MKNK2 (unknown origin) after 60 mins
[26] = Half life in Beagle dog at 5 mg/kg, iv; assay type: ADME, organism-based, Canis lupus familiaris; design: dose 5 mg/kg, route intravenous; conditions: in vivo
[27] = Cmax in Beagle dog at 20 mg/kg, po; assay type: ADME, organism-based, Canis lupus familiaris; design: dose 20 mg/kg, route oral; conditions: in vivo
[28] = Volume of distribution at steady state in Sprague-Dawley rat at 3 mg/kg, iv; assay type: ADME, organism-based; design: dose 3 mg/kg, route intravenous; conditions: in vivo, read-out: Vdss
in vivo = conditions: Sprague-Dawley, rat, iv, 3 mg/kg
[29] = AUC in Sprague-Dawley rat at 10 mg/kg, po; assay type: ADME, organism-based; design: dose 10 mg/kg, route oral; conditions: plasma
[30] = target: Tyrosine-protein kinase JAK3 (Homo sapiens, UniProt P52333); assay: Inhibition of JAK3 (unknown origin) after 60 mins
[31] = Cmax in Beagle dog at 5 mg/kg, iv; assay type: ADME, organism-based, Canis lupus familiaris; design: dose 5 mg/kg, route intravenous; conditions: in vivo
[32] = Tmax in BALB/c mouse at 5 mg/kg, iv; assay type: ADME, organism-based; design: dose 5 mg/kg, route intravenous; conditions: in vivo
[33] = target: Tyrosine-protein kinase JAK1 (Homo sapiens, UniProt P23458); assay: Inhibition of JAK1 (unknown origin) after 60 mins
[34] = Oral bioavailability in cynomolgus monkey at 60 mg/kg; assay type: ADME, organism-based, Macaca fascicularis; conditions: in vivo
[35] = target: T1, Tyrosine-protein kinase JAK2 (Homo sapiens, UniProt O60674); assay: Inhibition of TEL-fused JAK2 (unknown origin) by cell-based assay
[36] = Tmax in cynomolgus monkey at 60 mg/kg, po; assay type: ADME, organism-based, Macaca fascicularis; design: dose 60 mg/kg, route oral; conditions: in vivo
[37] = Toxicity in po dosed Rowett nude rat xenografted with human NCI-H2228 cells; assay type: organism-based; conditions: in vivo
[38] = Solubility of the compound […] at pH 6.8; assay type: physicochemical
[39] = Oral bioavailability in Sprague-Dawley rat at 10 mg/kg; assay type: ADME, organism-based; conditions: in vivo
[40] = Inhibition of Aurora kinase (unknown origin) after 60 mins; design: species or system Homo sapiens
[41] = target: T1, Tyrosine-protein kinase JAK2; assay: Inhibition of JAK2 (unknown origin) after 60 mins
[42] = target: Tyrosine-protein kinase Lyn (Homo sapiens, UniProt P07948); assay: Inhibition of TEL-fused LYN (unknown origin) by cell-based assay
Rattus norvegicus [43] = assay: Toxicity in po dosed Rowett nude rat xenografted with human NCI-H2228 cells assessed as body weight loss at 5 to 25 mg/kg, po; assay type: organism-based; design: dose 5-25 mg/kg, route oral; conditions: in vivo

Sequence of Tyrosine-protein kinase JAK1 (P23458 whole entry): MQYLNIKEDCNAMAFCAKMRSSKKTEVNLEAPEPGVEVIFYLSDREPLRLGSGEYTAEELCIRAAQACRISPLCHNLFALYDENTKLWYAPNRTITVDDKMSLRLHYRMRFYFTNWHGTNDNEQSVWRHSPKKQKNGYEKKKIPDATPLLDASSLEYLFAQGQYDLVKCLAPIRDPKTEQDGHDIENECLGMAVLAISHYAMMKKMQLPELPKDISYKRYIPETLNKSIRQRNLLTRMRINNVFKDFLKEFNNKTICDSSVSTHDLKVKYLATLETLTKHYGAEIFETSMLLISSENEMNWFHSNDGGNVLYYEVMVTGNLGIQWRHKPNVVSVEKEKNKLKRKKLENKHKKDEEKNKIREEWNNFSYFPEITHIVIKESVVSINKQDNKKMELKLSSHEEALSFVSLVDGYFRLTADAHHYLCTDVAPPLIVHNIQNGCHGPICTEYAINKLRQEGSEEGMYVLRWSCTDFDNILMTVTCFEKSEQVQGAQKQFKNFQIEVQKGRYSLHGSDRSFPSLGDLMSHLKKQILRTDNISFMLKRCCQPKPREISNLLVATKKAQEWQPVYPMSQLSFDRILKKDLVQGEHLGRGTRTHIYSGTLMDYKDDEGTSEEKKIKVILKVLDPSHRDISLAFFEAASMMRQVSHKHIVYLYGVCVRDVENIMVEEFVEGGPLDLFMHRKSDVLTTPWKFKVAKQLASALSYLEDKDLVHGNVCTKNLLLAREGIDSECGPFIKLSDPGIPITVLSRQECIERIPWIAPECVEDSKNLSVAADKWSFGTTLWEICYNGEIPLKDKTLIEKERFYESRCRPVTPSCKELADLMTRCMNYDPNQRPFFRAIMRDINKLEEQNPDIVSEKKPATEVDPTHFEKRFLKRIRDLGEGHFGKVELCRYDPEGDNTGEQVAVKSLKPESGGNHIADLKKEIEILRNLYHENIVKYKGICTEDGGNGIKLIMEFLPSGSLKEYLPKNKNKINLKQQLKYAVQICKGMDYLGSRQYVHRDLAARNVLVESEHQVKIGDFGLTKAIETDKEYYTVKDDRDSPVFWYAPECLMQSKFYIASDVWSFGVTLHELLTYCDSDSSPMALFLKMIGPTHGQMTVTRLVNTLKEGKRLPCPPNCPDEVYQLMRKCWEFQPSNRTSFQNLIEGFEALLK
Sequence of Transcription factor ETV6 (P41212 whole entry): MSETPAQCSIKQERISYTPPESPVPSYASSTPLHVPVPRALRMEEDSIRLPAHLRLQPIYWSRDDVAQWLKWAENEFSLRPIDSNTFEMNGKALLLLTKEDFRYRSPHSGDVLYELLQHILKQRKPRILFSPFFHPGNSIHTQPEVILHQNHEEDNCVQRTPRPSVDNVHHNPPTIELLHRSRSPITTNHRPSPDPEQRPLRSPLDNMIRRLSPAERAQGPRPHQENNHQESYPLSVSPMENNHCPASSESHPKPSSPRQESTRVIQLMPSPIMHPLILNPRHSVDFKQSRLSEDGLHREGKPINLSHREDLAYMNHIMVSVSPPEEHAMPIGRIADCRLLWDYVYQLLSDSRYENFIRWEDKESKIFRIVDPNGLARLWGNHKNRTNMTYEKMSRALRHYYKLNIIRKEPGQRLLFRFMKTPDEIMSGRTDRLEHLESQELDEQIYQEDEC
Sequence of Mast/stem cell growth factor receptor Kit (P10721 whole entry, the tested form may be a part): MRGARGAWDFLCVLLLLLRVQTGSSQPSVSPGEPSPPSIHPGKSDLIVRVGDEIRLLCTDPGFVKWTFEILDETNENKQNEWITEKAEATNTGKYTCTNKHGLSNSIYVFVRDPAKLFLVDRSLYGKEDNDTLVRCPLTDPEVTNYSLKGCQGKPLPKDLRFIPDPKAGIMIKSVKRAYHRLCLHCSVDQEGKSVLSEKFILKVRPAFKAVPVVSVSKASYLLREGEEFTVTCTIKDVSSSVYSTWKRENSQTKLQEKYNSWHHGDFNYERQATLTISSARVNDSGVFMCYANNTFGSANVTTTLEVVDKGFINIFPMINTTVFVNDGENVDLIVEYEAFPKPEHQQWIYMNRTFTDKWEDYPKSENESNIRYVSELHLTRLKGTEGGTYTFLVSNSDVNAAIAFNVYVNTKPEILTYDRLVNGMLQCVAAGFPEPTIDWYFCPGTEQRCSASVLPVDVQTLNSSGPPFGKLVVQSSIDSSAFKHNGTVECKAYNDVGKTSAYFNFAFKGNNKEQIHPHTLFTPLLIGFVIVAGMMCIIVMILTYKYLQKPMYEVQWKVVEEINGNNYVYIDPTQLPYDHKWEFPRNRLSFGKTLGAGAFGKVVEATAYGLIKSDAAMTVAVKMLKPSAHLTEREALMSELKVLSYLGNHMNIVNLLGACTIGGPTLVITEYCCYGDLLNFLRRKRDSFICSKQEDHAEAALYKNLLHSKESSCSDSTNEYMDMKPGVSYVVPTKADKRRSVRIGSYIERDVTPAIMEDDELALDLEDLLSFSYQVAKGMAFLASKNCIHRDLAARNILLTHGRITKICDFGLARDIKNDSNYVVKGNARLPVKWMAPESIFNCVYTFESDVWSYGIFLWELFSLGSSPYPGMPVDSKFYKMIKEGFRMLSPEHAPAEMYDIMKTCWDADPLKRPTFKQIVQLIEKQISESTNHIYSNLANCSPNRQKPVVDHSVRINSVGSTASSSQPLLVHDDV
Sequence of Tyrosine-protein kinase ABL1 (P00519 whole entry): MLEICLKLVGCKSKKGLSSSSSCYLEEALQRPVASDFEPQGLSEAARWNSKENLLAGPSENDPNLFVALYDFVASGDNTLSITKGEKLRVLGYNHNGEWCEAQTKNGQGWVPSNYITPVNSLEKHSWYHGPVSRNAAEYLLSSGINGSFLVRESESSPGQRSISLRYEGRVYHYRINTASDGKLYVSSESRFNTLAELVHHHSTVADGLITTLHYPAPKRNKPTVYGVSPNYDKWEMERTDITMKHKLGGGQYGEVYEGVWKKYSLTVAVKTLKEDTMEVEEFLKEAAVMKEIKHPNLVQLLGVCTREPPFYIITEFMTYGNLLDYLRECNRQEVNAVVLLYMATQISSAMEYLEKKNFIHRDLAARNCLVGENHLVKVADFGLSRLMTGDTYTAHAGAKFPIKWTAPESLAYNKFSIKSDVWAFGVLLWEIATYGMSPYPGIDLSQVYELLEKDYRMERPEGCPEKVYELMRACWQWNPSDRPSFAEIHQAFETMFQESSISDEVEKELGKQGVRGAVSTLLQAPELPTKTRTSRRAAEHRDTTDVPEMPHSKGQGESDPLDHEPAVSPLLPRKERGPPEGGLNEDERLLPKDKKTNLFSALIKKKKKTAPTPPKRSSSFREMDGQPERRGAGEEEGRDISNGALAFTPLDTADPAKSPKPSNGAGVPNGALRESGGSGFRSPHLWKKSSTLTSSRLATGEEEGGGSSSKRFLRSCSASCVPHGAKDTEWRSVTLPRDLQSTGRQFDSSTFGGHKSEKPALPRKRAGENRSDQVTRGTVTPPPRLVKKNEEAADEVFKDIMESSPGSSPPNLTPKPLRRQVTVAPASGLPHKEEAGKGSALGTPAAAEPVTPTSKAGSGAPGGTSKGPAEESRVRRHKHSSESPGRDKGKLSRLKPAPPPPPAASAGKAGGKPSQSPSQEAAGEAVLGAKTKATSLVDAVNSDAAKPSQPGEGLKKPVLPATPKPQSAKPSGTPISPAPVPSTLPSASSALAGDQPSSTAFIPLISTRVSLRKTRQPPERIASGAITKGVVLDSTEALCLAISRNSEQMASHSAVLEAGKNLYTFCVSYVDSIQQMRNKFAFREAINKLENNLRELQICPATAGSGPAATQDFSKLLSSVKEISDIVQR
Sequence of Proto-oncogene tyrosine-protein kinase Src (P12931 2-536 limits assumed): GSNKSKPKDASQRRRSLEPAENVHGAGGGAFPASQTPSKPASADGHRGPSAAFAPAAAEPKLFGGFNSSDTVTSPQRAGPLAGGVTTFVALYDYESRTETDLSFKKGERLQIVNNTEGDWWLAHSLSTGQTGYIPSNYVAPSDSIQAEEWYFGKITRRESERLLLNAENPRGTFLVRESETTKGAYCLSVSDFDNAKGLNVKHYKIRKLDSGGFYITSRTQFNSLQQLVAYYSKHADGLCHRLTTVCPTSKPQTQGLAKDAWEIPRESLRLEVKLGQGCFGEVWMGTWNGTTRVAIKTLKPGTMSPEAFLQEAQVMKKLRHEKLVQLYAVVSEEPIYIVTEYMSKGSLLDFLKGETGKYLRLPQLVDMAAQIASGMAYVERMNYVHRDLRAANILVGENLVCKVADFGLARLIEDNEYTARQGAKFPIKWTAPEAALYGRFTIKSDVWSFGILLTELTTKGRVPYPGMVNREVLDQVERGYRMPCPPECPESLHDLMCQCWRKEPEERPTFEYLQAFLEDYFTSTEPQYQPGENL
Sequence of High affinity nerve growth factor receptor (P04629 33-796 limits assumed): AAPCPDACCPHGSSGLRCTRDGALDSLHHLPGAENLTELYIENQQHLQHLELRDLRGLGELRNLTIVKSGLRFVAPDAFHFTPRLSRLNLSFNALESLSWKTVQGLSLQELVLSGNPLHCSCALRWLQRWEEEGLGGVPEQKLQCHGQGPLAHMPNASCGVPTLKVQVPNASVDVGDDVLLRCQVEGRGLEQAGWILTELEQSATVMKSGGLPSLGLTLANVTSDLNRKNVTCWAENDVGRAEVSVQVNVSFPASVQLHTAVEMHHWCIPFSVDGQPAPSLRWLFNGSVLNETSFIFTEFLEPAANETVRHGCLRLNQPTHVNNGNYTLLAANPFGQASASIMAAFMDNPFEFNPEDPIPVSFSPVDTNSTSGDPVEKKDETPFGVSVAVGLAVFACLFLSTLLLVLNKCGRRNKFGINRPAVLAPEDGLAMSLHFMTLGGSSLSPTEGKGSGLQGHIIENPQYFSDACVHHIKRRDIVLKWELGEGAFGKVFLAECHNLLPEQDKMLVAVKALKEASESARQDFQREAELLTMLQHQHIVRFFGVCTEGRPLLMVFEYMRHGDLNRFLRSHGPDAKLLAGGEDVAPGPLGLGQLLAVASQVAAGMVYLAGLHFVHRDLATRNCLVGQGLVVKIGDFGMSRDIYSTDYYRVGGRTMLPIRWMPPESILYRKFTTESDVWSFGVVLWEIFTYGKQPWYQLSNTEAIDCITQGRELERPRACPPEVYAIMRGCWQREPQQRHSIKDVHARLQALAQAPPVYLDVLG

Cc1cc(Nc2ncc(Cl)c(Nc3ccccc3S(=O)(=O)C(C)C)n2)c(OC(C)C)cc1C1CCNCC1 [CERITINIB]
microsomal CLint [1]: 15 µL/min/mg | IC50 [2]: 1.83 µM | IC50 [3]: 3.25 µM | Tmax [4]: 1.8 min | IC50 [5]: 0.95 µM | IC50 [6]: 2.73 µM | Cmax [7]: 1.76 µM | MTD [8]: 6.25 mg/kg | microsomal CLint [9]: 19 µL/min/mg | Activity (Rattus norvegicus [10]): Non-toxic | IC50 [11]: 0.06 µM | IC50 [12]: 1.28 µM | IC50 [13]: 1.69 µM | AUC [14]: 5.63 µM·h | AUC [15]: 76.3 µM·h | clearance [16]: 2.21 L/h/kg | T/C (KARPAS-299 [17]): -66% | IC50 [18]: 0.023 µM | IC50 [19]: 3.14 µM | T/C (KARPAS-299 [20]): 74% | IC50 [21]: 1.25 µM | IC50 [22]: > 10 µM | AUC [23]: 67.9 µM·h | half-life [24]: 9.1 h | IC50 [25]: 2.24 µM | half-life [26]: 21 h | Cmax [27]: 1.9 µM | Vd [28]: 21.2 L/kg | Cmax (in vivo): 0.77 µM | AUC [29]: 6.09 µM·h | IC50 [30]: 7.92 µM | Cmax [31]: 2.33 µM | Tmax [32]: 1.8 min | IC50 [33]: 3.73 µM | bioavailability [34]: 56% | IC50 [35]: 2.16 µM | Tmax [36]: 13 h | MTD [37]: 5 mg/kg | solubility [38]: 24 µM (≈ 13.4 µg/mL) | bioavailability [39]: 66% | IC50 [40]: 0.66 µM | IC50 [41]: 0.61 µM | IC50 [42]: 2.31 µM | Activity (Rattus norvegicus [43]): Non-toxic
